According to patent publication US20260158070A1, “COMPOSITIONS AND METHODS FOR THE TREATMENT AND DIAGNOSIS OF CANCERS ASSOCIATED WITH SURFACE K-RAS” (UNIVERSITY OF MARYLAND, BALTIMORE, priority 2023, published 2026):

Key:
[1] = system: Panc-1 (K-Ras G12D mutant); assay: Growth and viability of pancreatic cancer cells cultured with R11.1.6 constructs (cell count, Trypan blue); format: cell-based, human; conditions: Panc-1, 20,000 cells/well, counted after 5 days of culture
Method: We next evaluated growth as well as viability of two pancreatic cancer cell lines driven by either G12D (Panc-1) or G12C (MiaPaca-2) mutant K-Ras in vitro. We plated 20,000 cells/well in Dulbecco's modified Eagles media (DMEM) with 10% fetal bovine serum (FBS) in a flat bottom 96 well plate and counted cells after 5 days of culture. Viability of cells were calculated based on Trypan blue dye exclusion method, where dead cells were blue due to uptake of the viability dye and live cells were not stained. Viability was measured by using Countess II FL cell viability and cell counter instrument by Invitrogen (ThermoFisher USA).
Further evaluation of growth inhibition was performed with control Sulfolobus solfataricus-derived proteins of similar molecular weight. […] We started with 200,000 cells in a 96 well V-bottom plate and used BD phosflow buffer set III (BD biosciences, catalog number 558050) to stabilize and optimize the phosphor moiety. Next, we stained the cells with anti-phospho-Akt (ser473, Clone D9E) PE conjugated (Cell Signaling Technologies, Catalog number 5315S) at a concentration of 0.125 ug/100 ul or anti-phosho-ERK1/2, PE conjugated (ThermoFisher USA catalog number 12-9109-42) at a concentration of 0.125 ug/100 ul. Cells were washed in FACS staining buffer and run in a LSR Fortessa II flow cytometer (BD Biosciences, USA). […]

PANC-1 cells [2] = assay: Surface K-Ras availability after drug treatment (antibody 1 staining, MFI fold change); format: cell-based, human
Method: For 5-FU treatment, 100,000 PANC-1 cells were seeded into 24 well replicate plates. Cells were allowed to grow for 24 hours before 10 uM of 5-FU was added to the culture media. At 0-, 72-, and 120-hours cells were dislodged by using TryPLE express and resuspended in buffer containing PBS pH 7.2, 5% FCS. Cells were stained with human K-Ras antibody 1. All staining was performed at 10 μg/ml of antibody concentration and a volume of 100ul for 30 minutes on ice in V-bottom 96 well plates. Surface K-Ras staining was quantitated by measuring the MFI of cells mock treated or treated with 5-FU. The fold change was calculated by normalizing to the cells stained with isotype control.

PANC-1 cells [3] = assay: Human Fab-ZAP assay with MRTX1133 treatment (XTT); format: cell-based; conditions: 10 nM MRTX1133, 4.5 nM FabZAP, 5 days
Text: In this example, we used the commercially available human Fab-ZAP assay (Advanced Targeting Systems Inc.), similar to Example 3, to test whether increasing surface K-Ras availability with MRTX1133 would potentiate killing with surface K-Ras targeted ADCs. For the experiments described below, we utilized the Fab-ZAP human kit [IT-51, KIT-51](atsbio.com/products/it51/), consisting of a chemical conjugate of goat […] monovalent antibody and the ribosome-inactivating protein, saporin. The antibodies used in this kit are affinity-purified polyclonal antibodies against both the heavy and light chain of […].
In one experiment, we tested whether increasing surface K-Ras availability with the small molecule inhibitor MRTX1133 would potentiate killing with surface K-Ras targeted ADCs. […] After 5 days incubation at 37 C in a 5% CO2 incubator, the percentage of viable cells compared to control wells with 4.5 nM FabZAP alone was determined using XTT assay according to the described protocol (Advanced Targeting Systems Inc cytotoxic assay protocol). […] Plates were then incubated at 37 C for at least 30 mins, and absorbance was read at 450 nm in a plate reader. This assay relies on detecting the number of viable cells remaining on the day of development as measured via cell metabolism of a colorimetric molecule within the developing reagents. […]

[4] = system: human tumor cell line PANC-1; assay: Cell line-derived xenograft model of pancreatic cancer, in vivo ADC experiment; set-up: species or system Balb/c nude mice; conditions: 10 mg/kg i.v. QW × 2 weeks; gemcitabine 50 mg/kg i.p. BIW × 2 weeks
Method: DXd is a protease cleavable linker attached to a derivative of exatecan that acts as topoisomerase I inhibitor. DXd targeted to cancer cells by antibodies as an ADC has been used by FDA-approved […] is a conjugation of anti-Her-2 antibody and deruxtecan. DXd was conjugated via stochastic maleimide conjugation to interchain cysteines of the antibodies. The antibodies were first reduced using 10× molar equivalents of 10 mM TCEP at 37° C. for 90 minutes with shaking. The reduced antibodies were then conjugated with 10× molar equivalents of 10 mM DXd at room temperature for 2 hours. Conjugated antibodies were evaluated for the drug to antibody ratio (DAR) by reducing 10 μg of the crude conjugate with DTT at 37° C. for 30 minutes. The final DAR for the conjugated antibodies was 8. The multimeric state of the conjugated antibodies was evaluated by size exclusion chromatography and confirmed to be monomeric. Conjugated antibodies were purified from unconjugated DXd by dialysis against PBS, pH 5.6 with a 10K molecular-weight cut-off (MWCO) membrane for 48 hours. Next, we utilized a cell line-derived xenograft model of pancreatic cancer, where the human tumor cell line PANC-1 was implanted into Balb/c nude mice. The nude mouse is a naturally mutated mouse that lacks a thymus and hair (nude). […]

[5] = system: Panc-1 (pancreatic carcinoma carrying a K-RAS G12D mutation); assay: Fab-ZAP assay (saporin-linked secondary antibody, XTT); format: cell-based, human; conditions: 4.5 nM FabZAP, 5 days
Text: (§1) Saporin is a 30 kDa ribosome-inhibitor which is unable to cross a cell membrane unaided (except at extremely high concentrations). However, when it is conjugated to an internalizing antibody, as previously described (DOI: 10.3390/toxins14030184), it can be used to kill target cells precisely and specifically with little to no off-target toxicity (See, for example, Lund et. al., mAbs, 6(4), 1038-1050, doi.org/10.4161/mabs.28207). […]
(§2) We specifically utilized Panc-1 (pancreatic carcinoma carrying a K-RAS G12D mutation), Capan-2 (pancreatic carcinoma carrying a K-RAS G12V mutation), AsPC-1 (pancreatic cell line carrying a K-RAS G12D mutation), LS180 (colon cancer cell line carrying a K-RAS G12D mutation), SW480 (colon cancer cell lines carrying a K-RAS G12V mutation), Capan-2 (pancreatic cancer cell line carrying a K-RAS G12V mutation), and two lung cancer cell lines (SK-LU-1 carrying a K-RAS G12D mutation and NCI-H2444 carrying a K-RAS G12V mutation). […] After 5 days incubation at 37 C in a 5% CO2 incubator, the percentage of viable cells compared to control wells with 4.5 nM FabZAP alone was determined using XTT assay according to the described protocol (Advanced Targeting Systems Inc cytotoxic assay protocol). […] Plates were then incubated at 37° C. for a minimum of 30 mins and absorbance was read at 450 nm in a plate reader. […]

[6] = system: AsPC-1 (pancreatic cell line carrying a K-RAS G12D mutation); assay: as above; format: cell-based; conditions: 4.5 nM FabZAP, 5 days
Text: as §1, §2

tumor cell = assay: Tumor cell killing by saporin alone without targeting antibodies (FIG. 3); format: cell-based
Method: FIG. 3 is a graphical representation of tumor cell killing, defined as % of cells alive compared to untreated control cultures with various concentrations of saporin alone without targeting antibodies. Representative of 3 replicates per group. Arrow points to 4.5 nM saporin. This 4.5 nM concentration, conjugated to the secondary antibody, is utilized in the antibody-drug conjugate (ADC) assays described in Example 3.
as §2

BXPC3 K-Ras^WT = assay: Fab-ZAP assay (saporin-linked secondary antibody, XTT); format: cell-based; conditions: 4.5 nM FabZAP, 5 days
[7] = system: MiaPaCa-2, a K-Ras G12C expressing pancreatic cancer cell line; assay: as above; format: cell-based; conditions: 4.5 nM FabZAP, 5 days

## C#Cc1c(F)ccc2cc(O)cc(-c3ncc4c(N5CC6CCC(C5)N6)nc(OC[C@@]56CCCN5C[C@H](F)C6)nc4c3F)c12 [MRTX1133]
[1]
  growth and viability: R11.1.6-mediated inhibition of Panc-1 growth and viability was like the G12D inhibitor MRTX1133
PANC-1 cells [2]; 10 nM, 0, 72 and 120 hours
  availability of surface K-Ras (MFI fold change): increased the availability of surface K-Ras on PANC-1 cells
PANC-1 cells [3]
  cell killing (% alive): able to kill cells

## O=c1[nH]cc(F)c(=O)[nH]1 [5-FU, fluorouracil]
PANC-1 cells [2]; 10 uM, 0, 72 and 120 hours
  availability of surface K-Ras (MFI fold change): increased the availability of surface K-Ras in Panc-1 cells

## Nc1ccn([C@@H]2O[C@H](CO)[C@@H](O)C2(F)F)c(=O)n1 [gemcitabine, Gemcitabine]
[4]
  body weight: demonstrated distress based on weight loss
  tumor growth (tumor volume): slowed tumor growth over either ADC or antibody treatment

## Saporin
[5]
  cell-specific killing (% of cells alive): showed killing
[6]
  cell-specific killing (% of cells alive): showed killing
Tumor cell; 4.5 nM concentration used in the ADC assay
  toxicity of saporin without a targeting agent: no toxicity is evident at the 4.5 nM concentration
Tumor cell; without targeting antibodies
  concentration of saporin alone causing cell death: ≥ 100 nM
BXPC3 K-Ras^WT
  cell-specific killing (% of cells alive): showed killing
[7]
  cell-specific killing (% of cells alive): showed killing
